Data set [1] relates to animal cells. Further details: method as in Gruber-Dorninger et al., 2017. The note with it: in vitro assays; ref Gruber-Dorninger et al., 2017; cited from earlier work.
Data set [2] relates to B. distachyon line OE-10R14. Also on record: species or system Brachypodium distachyon. Particulars: in vivo.
The target of data set [3] is T1, HvUGT13248 (Hordeum vulgare subsp. vulgare, UniProt M0Y4P1).
T1 sequence (M0Y4P1 1-475): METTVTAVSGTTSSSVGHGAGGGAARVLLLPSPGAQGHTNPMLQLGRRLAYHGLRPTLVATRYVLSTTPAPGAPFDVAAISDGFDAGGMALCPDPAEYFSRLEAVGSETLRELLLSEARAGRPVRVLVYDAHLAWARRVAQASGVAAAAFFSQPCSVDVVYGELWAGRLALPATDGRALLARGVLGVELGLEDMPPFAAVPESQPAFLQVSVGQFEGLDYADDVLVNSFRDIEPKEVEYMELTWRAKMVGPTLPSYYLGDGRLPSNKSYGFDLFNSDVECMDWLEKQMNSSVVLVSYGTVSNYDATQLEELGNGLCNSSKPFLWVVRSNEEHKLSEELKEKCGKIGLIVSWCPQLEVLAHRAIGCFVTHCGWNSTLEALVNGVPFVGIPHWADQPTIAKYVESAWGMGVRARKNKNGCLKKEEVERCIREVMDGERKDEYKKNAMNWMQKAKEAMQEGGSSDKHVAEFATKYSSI
The data set can be described thus: biochemical. The note with it: read-out: Glucosylation rate of DON, percentage of the control.

In data set [4] the test system is B. distachyon Bd21-3. Further details: species or system Brachypodium distachyon. Particulars: in vivo.
The target of data set [5] is T1, HvUGT13248. The data set can be described thus: biochemical. Further details: made in house; host or cells: E. coli. Type of data set: biochemical.
Data set [6] concerns the target T2, OsUGT79 (Oryza sativa subsp. japonica, UniProt Q7XT97).
T2 construct: made in house; host or cells: E. coli
T2 sequence (Q7XT97 1-466): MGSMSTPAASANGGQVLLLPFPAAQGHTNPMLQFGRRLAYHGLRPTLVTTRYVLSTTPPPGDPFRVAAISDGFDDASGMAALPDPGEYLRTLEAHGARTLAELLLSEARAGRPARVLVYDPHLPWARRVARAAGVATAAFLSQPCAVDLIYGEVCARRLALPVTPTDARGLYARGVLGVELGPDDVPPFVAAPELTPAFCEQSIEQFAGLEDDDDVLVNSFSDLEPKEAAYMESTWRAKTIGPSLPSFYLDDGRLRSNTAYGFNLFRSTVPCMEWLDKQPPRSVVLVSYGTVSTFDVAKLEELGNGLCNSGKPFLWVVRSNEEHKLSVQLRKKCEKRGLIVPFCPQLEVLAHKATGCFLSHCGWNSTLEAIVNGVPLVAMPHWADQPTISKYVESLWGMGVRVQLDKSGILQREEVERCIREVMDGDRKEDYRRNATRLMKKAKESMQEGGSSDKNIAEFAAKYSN
The data set can be described thus: biochemical. Type of data set: biochemical.

The subject of data set [7] is wheat coleoptile tissue. Also on record: method as in Wang and Miller, 1988. Particulars: ref Wang and Miller, 1988, cited from earlier work.
Data set [8] concerns marine and terrestrial (human pathogenic) fungi. Further details: method as in Strongman et al., 1987. Particulars: ref Strongman et al., 1987; cited from earlier work.
Data set [9] addresses T3, BdUGT5g03300 (Brachypodium distachyon, UniProt I1IW79).
T3 sequence (I1IW79 1-469): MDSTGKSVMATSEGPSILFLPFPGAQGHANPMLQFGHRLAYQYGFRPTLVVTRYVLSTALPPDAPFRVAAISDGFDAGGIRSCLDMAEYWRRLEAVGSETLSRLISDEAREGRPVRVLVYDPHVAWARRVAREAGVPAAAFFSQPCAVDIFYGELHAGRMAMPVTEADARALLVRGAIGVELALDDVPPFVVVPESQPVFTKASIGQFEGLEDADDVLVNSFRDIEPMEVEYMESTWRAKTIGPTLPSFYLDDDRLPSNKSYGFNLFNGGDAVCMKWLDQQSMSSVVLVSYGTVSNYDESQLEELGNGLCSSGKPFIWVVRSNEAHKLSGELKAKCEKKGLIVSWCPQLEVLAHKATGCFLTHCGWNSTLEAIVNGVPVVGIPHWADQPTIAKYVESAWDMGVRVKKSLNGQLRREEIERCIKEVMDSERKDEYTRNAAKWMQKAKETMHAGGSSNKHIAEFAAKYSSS
The data set can be described thus: biochemical.

The mark [10] stands for this setting: read-out: Glucosylation rate of DON, percentage of the control.

SMILES strings stand for the structures.

Regarding `CC1(C)CCC[C@]2(C)[C@@H]3[C@H]1[C@@H](O)[C@@]2(C)C[C@H]3O` [CUL, culmorin], the “Toxicity to animal cells” value in [1] is listed as “low toxicity”. In [2], the “Effect of addition of CUL to 50 mg l^−1 DON on root length” value is recorded as “severe breakdown of resistance to DON”. Also, in data set [3], the remaining activity at 25 µM amounted to 59 ± 6% and the remaining activity at 125 µM amounted to 13%. In data set [4], the “Effect of CUL alone on root length” value is given as “did not elicit any significant effect” and the “Effect of CUL with 2 mg l^−1 DON on root length” value is reported as “clear dose-dependent synergistic effect”. For the same molecule, in [5], the “Increase of apparent KM of DON” value is listed as about 10 fold; the “K iu of CUL (uncompetitive inhibition, UDP-glucose as variable substrate)” value is listed as 91 µM; the affinity, expressed as Ki, was 56 µM. In data set [6], the “K iu of CUL (uncompetitive inhibition, DON as variable substrate)” value is on record as 208 µM; the “K iu of CUL (uncompetitive inhibition, UDP-glucose as variable substrate)” value worked out at 124 µM; the Ki is 146 µM. Further, the “Phytotoxicity on wheat by itself” value in data set [7] (10 µM CUL (∼3 mg l^−1)) is recorded as “no phytotoxicity”. In addition, the “Phytotoxicity on wheat coleoptile tissue” value in data set [7] (1000 µM CUL) was “phytotoxic effect”. Also, the Anti-fungal activity entry in data set [8] was “Weak anti-fungal activity”. Besides, in data set [9], the “Specific activity (glucoside formation)” value is “≈ 1×10^−3 nmol min^−1 mg^−1” and the “Specific activity with CUL, fold below the value obtained with DON” value is about 1000 fold. Moreover, the “Glucosylation rate of DON, percentage of the control” value in data set [9] (25 µM) turned out to be 0.84±0.03%. Also, in [9] (setting [10]), the remaining activity at 25 µM is under 1% and the remaining activity at 125 µM is 0.19 ± 0.01%.

One may read the Ki as the dissociation constant of the complex between target and ligand, obtained from inhibition or displacement. Low readings indicate a stronger hold on the target, high ones a looser hold on the target.

Source of the values: publication PMC13415951 (Journal of Experimental Botany, 2026).
